Measurements reported in patent US20230167127A1, “COMPOUNDS AND THEIR USE IN THE TREATMENT OF BACTERIAL INFECTION” (Hoffmann-La Roche Inc., priority 2020, published 2023).
pIC50: −log10 of the molar value. Like-named read-outs stand apart in the source and are kept apart here.

Tested on: Escherichia coli ATCC 25922
Assay: 50% growth inhibitory concentration (IC50) determination, Iso-Sensitest broth dilution
Format: cell-based
Conditions: strain Escherichia coli ATCC 25922, 10-point broth dilution, optical density at 600 nm over 16 h, read-out: Escherichia coli growth inhibition IC50
Outline: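 Growth was tracked as optical density at 600 nm every 20 minutes for 16 h at 35±2° C. Compounds from DMSO stocks were serially diluted twofold over 10 points (e.g. 50–0.097 μM final) in Iso-Sensitest broth. Inhibition computed in log-phase growth to give IC50.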

[1] = Escherichia coli, ATCC25922, 16 h

pIC50 [1]	pIC50	Compound
> 7.01		Cc1nc(Cl)c2c(c1F)CC(CNCCC1CN(c3cnc4c(n3)NC(=O)CO4)C(=O)O1)C2 (stereo not shown) [Example 431, 6-[5-[2-[(1-chloro-4-fluoro-3-methyl-6,7-dihydro-5H-cyclopenta[o]pyridin-6-yl)methylamino]ethyl]-2-oxo-1,3-oxazolidin-3-yl]-4H-pyrazino[2,3-b][1,4]oxazin-3-one; formic acid]
> 7.01		Cc1nccc2c1CC(CNCCC1CN(c3cnc4c(n3)NC(=O)CO4)C(=O)O1)C2 (stereo not shown) [Example 279, 6-[5-[2-[(1-methyl-6,7-dihydro-5H-cyclopenta[c]pyridin-6-yl)methylamino]ethyl]-2-oxo-1,3-oxazolidin-3-yl]-4H-pyrazino [2,3-b][1,4]oxazin-3-one; formic acid]
> 7.01		Cc1ncc(F)c2c1CC(CCNCC1CN(c3cnc4c(n3)NC(=O)CO4)C(=O)O1)C2 (stereo not shown) [Example 265, 6-[5-[[2-(4-Fluoro-1-methyl-6,7-dihydro-5H-cyclopenta[c]pyridin-6-yl)ethylamino]methyl]-2-oxo-1,3-oxazolidin-3-yl]-4H-pyrazino[2,3-b][1,4]oxazin-3-one; formic acid]
6.92		O=C1COc2ncc(N3CC(CCNCC4Cc5c(F)cnc(-c6cn[nH]c6)c5C4)OC3=O)nc2N1 (stereo not shown) [Example 432, 6-[5-[2-[[4-fluoro-1-(1H-pyrazol-4-yl)-6,7-dihydro-5H-cyclopenta[c]pyridin-6-yl]methylamino]ethyl]-2-oxo-1,3-oxazolidin-3-yl]-4H-pyrazino[2,3-b][1,4]oxazin-3-one]
> 7.01		Cc1nc(C)c2c(c1C)CC(CNCCC1CN(c3cnc4c(n3)NC(=O)CO4)C(=O)O1)C2 (stereo not shown) [Example 269, 6-[2-Oxo-5-[2-[(1,3,4-trimethyl-6,7-dihydro-5H-cyclopenta[c]pyridin-6-yl)methylamino]ethyl]-1,3-oxazolidin-3-yl]-4H-pyrazino[2,3-b][1,4]oxazin-3-one]
	> 7.01	O=C1COc2ncc(N3CC(CC(O)CNC4Cc5cccc(F)c5C4)OC3=O)nc2N1 (single isomer, unassigned; isomer a) [Example 83, 6-[5-[3-[(4-fluoro-2,3-dihydro-1H-inden-2-yl)amino]-2-hydroxypropyl]-2-oxo-1,3-oxazolidin-3-yl]-4H-pyrazino[2,3-b][1,4]oxazin-3-one, Isomer A; formic acid]

The next lines start with the molecule.

Compound	pIC50 [1]	pIC50
NC1(CCNCC2CN(c3ccc4c(n3)NC(=O)CO4)C(=O)O2)Cc2cccc(Cl)c2C1 (stereo not shown) [Example 142, 6-[5-[[2-(2-amino-4-chloro-1,3-dihydroinden-2-yl)ethylamino]methyl]-2-oxo-1,3-oxazolidin-3-yl]-4H-pyrido[3,2-b][1,4]oxazin-3-one; formic acid]	> 7.01	
N#Cc1cccc2c1CC(N[C@H]1C[C@@H](C3CN(c4ccc5c(n4)NC(=O)CO5)C(=O)O3)C1)C2 (stereo partly drawn) [Example 19, 2-[[cis-3-[2-oxo-3-(3-oxo-4H-pyrido[3,2-b][1,4]oxazin-6-yl)-1,3-oxazolidin-5-yl]cyclobutyl]amino]-2,3-dihydro-1H-indene-4-carbonitrile; formic acid]	6.35	
O=C1COc2ccc(N3CC([C@H]4C[C@H](NC5Cc6cccc(Cl)c6C5)C4)OC3=O)nc2N1 (stereo partly drawn) [Example 17, 6-[5-[trans-3-[(4-chloro-2,3-dihydro-1H-inden-2-yl)amino]cyclobutyl]-2-oxo-1,3-oxazolidin-3-yl]-4H-pyrido[3,2-b][1,4]oxazin-3-one]	6.08	
Cc1nc(OCC2CNC(=O)CO2)c(C)c2c1CC(CNCCC1CN(c3ccc4c(n3)NC(=O)CO4)C(=O)O1)C2 (stereo not shown) [Example 101, 6-[5-[2-[[1,4-dimethyl-3-[(5-oxomorpholin-2-yl)methoxy]-6,7-dihydro-5H-cyclopenta[c]pyridin-6-yl]methylamino]ethyl]-2-oxo-1,3-oxazolidin-3-yl]-4H-pyrido[3,2-b][1,4]oxazin-3-one]	5.86	
NC1c2cccc(Cl)c2CC1CNCCC1CN(c2ncc3c(n2)NC(=O)CO3)C(=O)O1 (racemic) [Example 290, 2-[5-[2-[(rac-1,2-trans-1-amino-4-chloro-2,3-dihydro-1H-inden-2-yl)methylamino]ethyl]-2-oxo-1,3-oxazolidin-3-yl]-8H-pyrimido[5,4-b][1,4]oxazin-7-one]	6.58	
N#Cc1cccc2c1CC(CNCCC1CN(c3ccc4c(c3)NC(=O)CO4)C(=O)O1)C2 (stereo not shown) [Example 18, 2-[[2-[2-oxo-3-(3-oxo-4H-1,4-benzoxazin-6-yl)-1,3-oxazolidin-5-yl]ethylamino]methyl]-2,3-dihydro-1H-indene-4-carbonitrile; formic acid]	> 7.01	
CNC(=O)COc1cc(C)c2c(c1C)CC(CNCCC1CN(c3ccc4c(n3)NC(=O)CS4)C(=O)O1)C2 (stereo not shown) [Example 114, 2-[[4,7-dimethyl-2-[[2-[2-oxo-3-(3-oxo-4H-pyrido[3,2-b][1,4]thiazin-6-yl)-1,3-oxazolidin-5-yl]ethylamino]methyl]-2,3-dihydro-1H-inden-5-yl]oxy]-N-methylacetamide]	6.66	
Cc1nc(OCCNC(C)C)c(C)c2c1CC(CNCCC1CN(c3ccc4c(n3)NC(=O)CO4)C(=O)O1)C2 (stereo not shown) [Example 201, 6-[5-[2-[[1,4-dimethyl-3-[2-(propan-2-ylamino)ethoxy]-6,7-dihydro-5H-cyclopenta[c]pyridin-6-yl]methylamino]ethyl]-2-oxo-1,3-oxazolidin-3-yl]-4H-pyrido[3,2-b][1,4]oxazin-3-one]	6.80	
O=C1COc2ccc(N3C[C@H](NC4CC(NC5Cc6cccc(F)c6C5)C4)CC3=O)nc2N1 (stereo partly drawn) [Example 23, 6-[(4R)-4-[[3-[(4-fluoro-2,3-dihydro-1H-inden-2-yl)amino]cyclobutyl]amino]-2-oxopyrrolidin-1-yl]-4H-pyrido[3,2-b][1,4]oxazin-3-one; formic acid]	5.66	
NCCOc1cc2c(c(Cl)n1)CC(CNCCC1CN(c3ccc4c(n3)NC(=O)CO4)C(=O)O1)C2 (stereo not shown) [Example 126, 6-[5-[2-[[3-(2-aminoethoxy)-1-chloro-6,7-dihydro-5H-cyclopenta[c]pyridin-6-yl]methylamino]ethyl]-2-oxo-1,3-oxazolidin-3-yl]-4H-pyrido[3,2-b][1,4]oxazin-3-one]	6.59	
Cc1nc(OCCN)c(C)c2c1CC(CNCCC1CN(c3ccc4c(n3)NC(=O)CO4)C(=O)O1)C2 (stereo not shown) [Example 171, 6-[5-[2-[[3-(2-aminoethoxy)-1,4-dimethyl-6,7-dihydro-5H-cyclopenta[c]pyridin-6-yl]methylamino]ethyl]-2-oxo-1,3-oxazolidin-3-yl]-4H-pyrido[3,2-b][1,4]oxazin-3-one]	6.75	
NCCOc1ncc2c(c1Cl)CC(CNCCC1CN(c3ccc4c(n3)NC(=O)CO4)C(=O)O1)C2 (stereo not shown) [Example 174, 6-[5-[2-[[3-(2-aminoethoxy)-4-chloro-6,7-dihydro-5H-cyclopenta[c]pyridin-6-yl]methylamino]ethyl]-2-oxo-1,3-oxazolidin-3-yl]-4H-pyrido[3,2-b][1,4]oxazin-3-one]	> 7.01	
NC(COc1cc(F)c2c(c1)CC(CNCCC1CN(c3ccc4c(n3)NC(=O)CO4)C(=O)O1)C2)C(=O)O (stereo not shown) [Example 267, 2-Amino-3-[[7-fluoro-2-[[2-[2-oxo-3-(3-oxo-4H-pyrido[3,2-b][1,4]oxazin-6-yl)-1,3-oxazolidin-5-yl]ethylamino]methyl]-2,3-dihydro-1H-inden-5-yl]oxy]propanoic acid; formic acid]	> 7.01	
